According to ChEMBL document CHEMBL5226391, “Valhidepsin Lipopeptides from Chromobacterium vaccinii: Structures, Biosynthesis, and Coregulation with FR900359 Production” (J Nat Prod, 2023):
Activity calls are given as the source filed them. The rule behind the calls is not given here.

Tests used:
A549 = assay: Antiproliferative activity against human A549 cells assessed as reduction in cell viability at 50 uM incubated for 72 hrs by cellTiter-glo assay; type: functional, cell-based
NCI-H647 = assay: Antiproliferative activity against human NCI-H647 cells assessed as reduction in cell viability at 50 uM incubated for 72 hrs by cellTiter-glo assay; type: functional, cell-based
NCI-H2228 = assay: Antiproliferative activity against human NCI-H2228 cells assessed as reduction in cell viability at 50 uM incubated for 72 hrs by cellTiter-glo assay; type: functional, cell-based
RERF-LC-MS = assay: Antiproliferative activity against human RERF-LC-MS cells assessed as reduction in cell viability at 50 uM incubated for 72 hrs by cellTiter-glo assay; type: functional, cell-based
Escherichia coli = assay: Antibacterial activity against Escherichia coli ATCC 25922; type: functional, organism-based
Pseudomonas aeruginosa = assay: Antibacterial activity against Pseudomonas aeruginosa PA14; type: functional, organism-based
Bacillus subtilis = assay: Antibacterial activity against Bacillus subtilis ATCC 23857; type: functional, organism-based
Saccharomyces cerevisiae = assay: Antimicrobial activity against Saccharomyces cerevisiae YSD1; type: functional, organism-based
[1] = tested on: Schizosaccharomyces pombe; assay: Antifungal activity against Schizosaccharomyces pombe H1374; type: functional, organism-based
[2] = Stability of compound at pH 9 assessed as half life measured at 0.5 to 92 hrs by LC-UV/MS analysis; type: physicochemical; conditions: buffer, time 0.5-92 hrs
[3] = Stability of compound at pH 8.5 assessed as half life measured at 0.5 to 92 hrs by LC-UV/MS analysis; type: physicochemical; conditions: buffer, time 0.5-92 hrs
[4] = Stability of compound at pH 8 assessed as half life measured at 0.5 to 92 hrs by LC-UV/MS analysis; type: physicochemical; conditions: buffer, time 0.5-92 hrs
[5] = Stability of compound at pH 7.5 measured at 0.5 to 92 hrs by LC-UV/MS analysis; type: physicochemical; conditions: buffer, time 0.5-92 hrs

half-life [2] [h]	half-life [3] [h]	half-life [4] [h]	Stability [5]	SMILES	Activity (A549)	Activity (NCI-H647)	Activity (NCI-H2228)	Activity (RERF-LC-MS)	Activity (Escherichia coli)	Activity (Pseudomonas aeruginosa)	Activity (Bacillus subtilis)	Activity (Saccharomyces cerevisiae)	Activity [1]
–	–	–	–	CCCCCC/C=C\CC(=O)N[C@@H](CO)C(=O)N[C@@H](C(=O)N[C@@H](Cc1c[nH]cn1)C(=O)N[C@H](C(=O)N[C@H](CC(C)C)C(=O)N[C@H](C(=O)O)C(C)C)C(C)C)C(C)C	inactive	inactive	inactive	inactive	inactive	inactive	inactive	inactive	inactive
7	26	5	Stable	CCCCCC/C=C\CC(=O)N[C@H]1COC(=O)[C@H](C(C)C)NC(=O)[C@@H](CC(C)C)NC(=O)[C@H](C(C)C)NC(=O)[C@H](Cc2c[nH]cn2)NC(=O)[C@@H](C(C)C)NC1=O	Active	Active	Active	Active	inactive	inactive	Active	Active	Active
